# Literature values as cited in patent US20130177609A1, “Compositions and Methods for Increasing Bioavailability of Topical Ophthalmic Drugs” (priority 2008, published 2013).
# Details: cited from earlier work
row,Structure (SMILES),Approximate Solubility in Water
1,NC(=O)Cc1cccc(C(=O)c2ccccc2)c1N [nepafenac],20 to 50 µg/mL
2,CC(C)(C)NC[C@H](O)COc1cccc2c1CCCC2=O [levobutonol],250 µg/mL
3,Brc1c(NC2=NCCN2)ccc2nccnc12 [brimonidine],1500 µg/mL
4,CC(C)NCC(O)COc1ccc(CCOCC2CC2)cc1 (stereo not drawn) [betaxolol],450 µg/mL
5,C[C@@H]1C[C@H]2[C@@H]3CCC4=CC(=O)C=C[C@]4(C)[C@@]3(F)[C@@H](O)C[C@]2(C)[C@@]1(O)C(=O)CO [dexamethasone],9 µg/mL
6,CCc1cccc2c3c([nH]c12)C(CC)(CC(=O)O)OCC3 (stereo not drawn) [etodolac],16 µg/mL
7,CN1C(C(=O)Nc2ccccn2)=C(O)c2ccccc2S1(=O)=O [piroxicam],30 µg/mL
8,Nc1c(CC(=O)O)cccc1C(=O)c1ccc(Br)cc1 [bromfenac],13 µg/mL
9,CC(C)OC(=O)CCC/C=C\C[C@@H]1[C@@H](CC[C@@H](O)CCc2ccccc2)[C@H](O)C[C@@H]1O [latanoprost],52 µg/mL
